Patent US20230111310A1, “CARBOXYLIC ACID DERIVATIVE-SUBSTITUTED IMINO ARYL COMPOUND, PREPARATION METHOD THEREFOR, HERBICIDAL COMPOSITION AND USE THEREOF” (Qingdao Kingagroot Chemical Compound Co., Ltd., priority 2020, published 2023)

Legend:
Type in all cases: in vivo
Abutilon theophrasti [1] = assay: Weeding effect in post-emergence stage; conditions: fresh weight control rate level
Procedure, shortened: (§1)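 Weeds were treated post-emergence at 2-3 leaves with compound doses from 7.5 up to 500 g/ha, formulated in acetone–Tween 80 with methyl oleate synergist. Efficacy was assessed as growth control after 3 weeks.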

Alopecurus japonicus = assay: Weeding effect in post-emergence stage; conditions: fresh weight control rate level
Procedure, shortened: as §1

Digitaria sanguinalis = assay: Weeding effect in post-emergence stage; conditions: fresh weight control rate level
Procedure, shortened: as §1

Eleusine indica = assay: Weeding effect in post-emergence stage; conditions: fresh weight control rate level
Procedure, shortened: as §1

Setaria viridis [2] = assay: Weeding effect in post-emergence stage; conditions: fresh weight control rate level
Procedure, shortened: as §1

Echinochloa crusgalli = assay: Weeding effect in post-emergence stage; conditions: fresh weight control rate level
Procedure, shortened: as §1

Abutilon theophrasti [3] = assay: Weeding effect in pre-emergence stage; conditions: 30 g/ha, 4 weeks
Procedure, shortened: (§2)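 Test compounds were dissolved in acetone with tween 80, diluted with water and sprayed right after sowing, with seeds covered by 0.5-2 cm of soil. Rates were 500 to 7.5 g/ha. Growth control was scored against activity-level criteria after 4 weeks in the greenhouse.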

Amaranthus retroflexus = assay: Weeding effect in pre-emergence stage; conditions: 30 g/ha, 4 weeks
Procedure, shortened: as §2

Capsella bursa-pastoris = assay: Weeding effect in pre-emergence stage; conditions: 30 g/ha, 4 weeks
Procedure, shortened: as §2

Descurainia sophia = assay: Weeding effect in pre-emergence stage; conditions: 30 g/ha, 4 weeks
Procedure, shortened: as §2

Setaria viridis [4] = assay: Weeding effect in pre-emergence stage; conditions: 30 g/ha, 4 weeks
Procedure, shortened: as §2

Veronica didyma Tenore = assay: Weeding effect in pre-emergence stage; conditions: 30 g/ha, 4 weeks
Procedure, shortened: as §2

Peanut = assay: Pre-emergence stage, crop selectivity; conditions: 30 g/ha, 4 weeks
Procedure, shortened: as §2

Soybeans = assay: Pre-emergence stage, crop selectivity; conditions: 30 g/ha, 4 weeks
Procedure, shortened: as §2

corn = assay: Pre-emergence stage, crop selectivity; conditions: 30 g/ha, 4 weeks
Procedure, shortened: as §2

cotton = assay: Pre-emergence stage, crop selectivity; conditions: 30 g/ha, 4 weeks
Procedure, shortened: as §2

Leptochloa chinensis = assay: Weed control effect evaluation in rice field; conditions: rice field pot, 30 g/ha, 14 days after treatment
Description: (§3) The activity level criteria for plant damage (i.e., growth control rate) are as follows:
(§4) Rice field soil was loaded into a 1/1,000,000 ha pot. The seeds of Echinochloa crusgalli. Scirpus juncoides. Bidens tripartita L., Monochoria vaginalis, and Leptochloa chinensis were sowed and gently covered with soil, then left to stand still in greenhouse in the state of 0.5-1 cm of water storage. The tuber of Sagittaria trifolia was planted in the next day or 2 days later. It was kept at 3-4 cm of water storage thereafter. The weeds were treated by dripping the WP or SC water diluents prepared according to the common preparation method of the compounds of the present invention with pipette homogeneously to achieve specified effective amount when Echinochloa crusgalli. Scirpus juncoides, Bidens tripartita L., Monochoria vaginalis, and Leptochloa chinensis reached 0.5 leaf stage and Sagittaria trifolia reached the time point of primary leaf stage.
(§5) The fertility condition of Echinochloa crusgalli. Scirpus juncoides. Bidens tripartita L., Monochoria vaginalis, Leptochloa chinensis and Sagittaria trifolia 14 days after the treatment of the compound of the invention and the fertility condition of rice 21 days after the treatment of the compound of the invention respectively with the naked eye. Evaluate the weed control effect with the above activity standard level. Many compounds show excellent activity and selectivity.

Monochoria vaginalis = assay: Weed control effect evaluation in rice field; conditions: rice field pot, 30 g/ha, 14 days after treatment
Description: as §3, §4, §5

Scirpus juncoides = assay: Weed control effect evaluation in rice field; conditions: rice field pot, 30 g/ha, 14 days after treatment
Description: as §3, §4, §5

Rice = assay: Transplanted rice safety evaluation; conditions: transplanted japonica rice, 30 g/ha, 21 days after treatment
Description: as §3
In addition, the rice field soil that loaded into the 1/1,000,000 ha pot was leveled to keep water storage at 3-4 cm depth. The 5 leaf stage rice (japonica rice) was transplanted at 3 cm of transplanting depth the next day. The compound of the present invention was treated by the same way after 5 days of transplantation.
as §5

| SMILES | activity level (growth control rate) Abutilon theophrasti (Abutilon theophrasti [3]) | activity level (growth control rate) Amaranthus retroflexus (Amaranthus retroflexus) | activity level (growth control rate) Capsella bursa-pastoris (Capsella bursa-pastoris) | activity level (growth control rate) Descurainia sophia (Descurainia sophia) | activity level (growth control rate) Setaria viridis (Setaria viridis [4]) | activity level (growth control rate) Veronica didyma Tenore (Veronica didyma Tenore) | plant damage level Peanut (Peanut) | plant damage level Soybeans (Soybeans) | plant damage level Corn (corn) | plant damage level Cotton (cotton) | activity level (weed control effect) Leptochloa chinensis (Leptochloa chinensis) | activity level (weed control effect) Monochoria vaginalis (Monochoria vaginalis) | activity level (weed control effect) Scirpus juncoides (Scirpus juncoides) | plant damage level Rice (Rice) | other results |
| --- | --- | --- | --- | --- | --- | --- | --- | --- | --- | --- | --- | --- | --- | --- | --- |
| CC(C)N(C)S(=O)(=O)NC(=O)[C@@H](C)O/N=C/c1cc(-n2c(=O)cc(C(F)(F)F)n(C)c2=O)c(F)cc1Cl [421(R)] | 5 (Level 5: growth control rate is above 85%) | 5 (Level 5: growth control rate is above 85%) | 5 (Level 5: growth control rate is above 85%) | 5 (Level 5: growth control rate is above 85%) | 5 (Level 5: growth control rate is above 85%) | 5 (Level 5: growth control rate is above 85%) | 0 (Level 0: growth control rate is less than 5%) | 0 (Level 0: growth control rate is less than 5%) | 0 (Level 0: growth control rate is less than 5%) | 0 (Level 0: growth control rate is less than 5%) | 5 (Level 5: growth control rate is above 85%) | 5 (Level 5: growth control rate is above 85%) | 5 (Level 5: growth control rate is above 85%) | 0 (Level 0: growth control rate is less than 5%) | Weeding effect in post-emergence stage, Abutilon theophrasti (level) (Abutilon theophrasti [1]; Dose 15 g/ha): 5 (Level 5: growth control rate is above 85%); Weeding effect in post-emergence stage, Alopecurus japonicus (level) (Alopecurus japonicus; Dose 15 g/ha): 5 (Level 5: growth control rate is above 85%); Weeding effect in post-emergence stage, Digitaria sanguinalis (level) (Digitaria sanguinalis; Dose 15 g/ha): 5 (Level 5: growth control rate is above 85%); Weeding effect in post-emergence stage, Eleusine indica (level) (Eleusine indica; Dose 15 g/ha): 5 (Level 5: growth control rate is above 85%); Weeding effect in post-emergence stage, Setaria viridis (level) (Setaria viridis [2]; Dose 15 g/ha): 5 (Level 5: growth control rate is above 85%); Weeding effect in post-emergence stage, Echinochloa crusgalli (level) (Echinochloa crusgalli; Dose 15 g/ha): 5 (Level 5: growth control rate is above 85%) |
| C=CCOC(=O)C(C)(C)O/N=C/c1cc(-n2c(=O)cc(C(F)(F)F)n(C)c2=O)c(F)cc1Cl [Compound 434] | 5 (Level 5: growth control rate is above 85%) | 5 (Level 5: growth control rate is above 85%) | 5 (Level 5: growth control rate is above 85%) | 5 (Level 5: growth control rate is above 85%) | 5 (Level 5: growth control rate is above 85%) | 5 (Level 5: growth control rate is above 85%) | 0 (Level 0: growth control rate is less than 5%) | 0 (Level 0: growth control rate is less than 5%) | 0 (Level 0: growth control rate is less than 5%) | 0 (Level 0: growth control rate is less than 5%) | 5 (Level 5: growth control rate is above 85%) | 5 (Level 5: growth control rate is above 85%) | 5 (Level 5: growth control rate is above 85%) | 0 (Level 0: growth control rate is less than 5%) | Weeding effect in post-emergence stage, Abutilon theophrasti (level) (Abutilon theophrasti [1]; Dose 30 g/ha): 5 (Level 5: growth control rate is above 85%); Weeding effect in post-emergence stage, Alopecurus japonicus (level) (Alopecurus japonicus; Dose 30 g/ha): 5 (Level 5: growth control rate is above 85%); Weeding effect in post-emergence stage, Digitaria sanguinalis (level) (Digitaria sanguinalis; Dose 30 g/ha): 5 (Level 5: growth control rate is above 85%); Weeding effect in post-emergence stage, Eleusine indica (level) (Eleusine indica; Dose 30 g/ha): 5 (Level 5: growth control rate is above 85%); Weeding effect in post-emergence stage, Setaria viridis (level) (Setaria viridis [2]; Dose 30 g/ha): 5 (Level 5: growth control rate is above 85%); Weeding effect in post-emergence stage, Echinochloa crusgalli (level) (Echinochloa crusgalli; Dose 30 g/ha): 5 (Level 5: growth control rate is above 85%) |
